From patent US20250059175A1, “Mutant Pi3k-Alpha Inhibitors And Their Use As Pharmaceuticals” (Prelude Therapeutics Incorporated, priority 2023, published 2025) come the findings set out here.

What is called IC50 is the midpoint of a concentration-inhibition curve.

Read-outs that look alike come from different tables or passages of the source.

This experiment concerns phosphorylation of AKT on Ser473 (PI3K pathway) in T-47D (heterozygous PIK3CA H1047R) cell line. Briefly: PI3K pathway activation assay (pAKT Ser473 HTRF), T-47D cells. In kind it is cell-based. The conditions noted are these: Homo sapiens, T47D, 2 h, read-out: T47D pAKT IC50. The procedure:
The inhibitory activity of the compounds of the disclosure was evaluated by measuring phosphorylation of AKT on Ser473 as a readout of the PI3K pathway using HTRF (CisBio catalog number: 64AKSPE). These studies were conducted in the T-47D (heterozygous PIK3CA H1047R) and SKBR3 (PIK3CA WT) cell lines. Cells were maintained in a 37° C. incubator at 5% CO2 in the following media: T-47D: RPMI 1640, ATCC© Modification (Gibco, A10491-01) supplemented with 10% v/v FBS (Gibco, 26140-079), 1% penicillin streptomycin (Gibco, 15140-122), and 7.4 ug/mL insulin (MilliporeSigma, I9278); SKBR3: McCoy's 5a (Modified) Medium (Gibco, 16600-082) supplemented with 10% v/v FBS (Gibco, 26140-079). Cells were seeded in 384-well plates at a density of 4,000 cells/well. Compounds dissolved in DMSO were added using a digital dispense (D300E, Tecan) 10-point serial dilution. After two hours of treatment, cells were lysed for thirty minutes and then incubated with detection reagents per HTRF kit material and manufacturer's instructions. Fluorescence signal was measured with a multimode plate reader (Envision 2105, Perkin Elmer). Fluorescent signal was normalized to background and DMSO controls to obtain percent inhibition/activity for each compound.
For orientation: Time-resolved FRET reads energy transfer from a long-lived donor to a nearby acceptor.

Setting [1] is: T-47D (heterozygous PIK3CA H1047R) cells, two hours of treatment, pAKT Ser473 HTRF.

As for `Cc1cc(C(C)Nc2ccc(Cl)nc2C(=O)O)cc(N2C(=O)OC[C@@H]2Cc2ccccc2)c1` (single isomer, unassigned) [Example 2], under setting [1], the IC50 lay within 0.1 to 1 µM.

As for `Cc1cc(C(C)Nc2cccnc2C(=O)O)nc(N2C(=O)OC[C@@H]2Cc2ccccc2)c1` (single isomer, unassigned) [Example 13], the IC50 under setting [1] was 0.1 to 1 µM.

Consider `Cc1cc(C(C)Nc2ccc(C)nc2C(=O)O)nc(N2C(=O)OC[C@@H]2Cc2ccccc2)c1` (single isomer, unassigned) [Example 14], for which, under setting [1], the IC50 is 0.1 to 1 µM.

For the compound `Cc1cc(C(C)Nc2ccc(C(F)(F)F)nc2C(=O)O)nc(N2C(=O)OC[C@@H]2Cc2ccccc2)c1` (single isomer, unassigned) [Example 15], under setting [1], the IC50 fell in the range of 1 to 10 µM. As for `COc1ccc(NC(C)c2cc(C)cc(N3C(=O)OC[C@@H]3Cc3ccccc3)n2)c(C(=O)O)n1` (single isomer, unassigned) [Example 16], the half-inhibitory concentration (IC50) under setting [1] was 0.1 to 1 µM. Regarding `Cc1cc(C(C)Nc2ccc(Cl)nc2C(=O)O)cc(N2C(=O)OC[C@@H]2Cc2ccccc2)c1` (stereo partly drawn) [Example 1, 3-((1-(3-((S)-4-Benzyl-2-oxooxazolidin-3-yl)-5-methylphenyl)ethyl)amino)-6-chloropicolinic acid], the IC50 under setting [1] lay within 0.1 to 1 µM.

Take `Cc1cc(C(C)Nc2ccc(F)nc2C(=O)O)cc(N2C(=O)OC[C@@H]2Cc2ccccc2)c1` (stereo partly drawn) [Example 3, 3-((1-(3-((S)-4-Benzyl-2-oxooxazolidin-3-yl)-5-methylphenyl)ethyl)amino)-6-fluoropicolinic acid]: the half-inhibitory concentration (IC50) under setting [1] was in the range of 0.1 to 1 µM. The same measure, in the same setting: the same measure for `CC(Nc1ccc(Cl)nc1C(=O)O)c1cc(F)cc(N2C(=O)OC[C@@H]2Cc2ccccc2)c1` (stereo partly drawn) [Example 4, 3-((1-(3-((S)-4-Benzyl-2-oxooxazolidin-3-yl)-5-fluorophenyl)ethyl)amino)-6-chloropicolinic acid]: 0.1 to 1 µM; for `CC(Nc1ccc(F)nc1C(=O)O)c1cc(F)cc(N2C(=O)OC[C@@H]2Cc2ccccc2)c1` (stereo partly drawn) [Example 5, 3-((1-(3-((S)-4-Benzyl-2-oxooxazolidin-3-yl)-5-fluorophenyl)ethyl)amino)-6-fluoropicolinic acid]: 0.1 to 1 µM; for `CC(Nc1ccc(Cl)nc1C(=O)O)c1cc(Cl)cc(N2C(=O)OC[C@@H]2Cc2ccccc2)c1` (stereo partly drawn) [Example 6, 3-((1-(3-((S)-4-Benzyl-2-oxooxazolidin-3-yl)-5-chlorophenyl)ethyl)amino)-6-chloropicolinic acid]: 0.1 to 1 µM. The same measure, in the same setting: the value for `CC(Nc1ccc(F)nc1C(=O)O)c1cc(Cl)cc(N2C(=O)OC[C@@H]2Cc2ccccc2)c1` (stereo partly drawn) [Example 7, 3-((1-(3-((S)-4-Benzyl-2-oxooxazolidin-3-yl)-5-chlorophenyl)ethyl)amino)-6-fluoropicolinic acid] was 0.1 to 1 µM. For `CC(Nc1ccc(F)nc1C(=O)O)c1cc(N2C(=O)OC[C@@H]2Cc2ccccc2)cc(C(F)(F)F)c1` (stereo partly drawn) [Example 8, 3-((1-(3-((S)-4-Benzyl-2-oxooxazolidin-3-yl)-5-(trifluoromethyl)phenyl)ethyl)amino)-6-fluoropicolinic acid], under setting [1], the IC50 is 1 to 10 µM. On the same count and under the same terms, the same measure for `Cc1cc([C@@H](C)Nc2ccc(Cl)nc2C(=O)O)cc(N2C(=O)OC[C@@H]2Cc2ccc(Br)cc2)c1` [Example 9, 3-(((R)-1-(3-((S)-4-(4-Bromobenzyl)-2-oxooxazolidin-3-yl)-5-methylphenyl)ethyl)amino)-6-chloropicolinic acid]: 1 to 10 µM; for `C[C@@H](Nc1ccc(Cl)nc1C(=O)O)c1cc(F)cc(N2C(=O)OC[C@@H]2Cc2ccccc2)c1` [Example 10, 3-(((R)-1-(3-((S)-4-Benzyl-2-oxooxazolidin-3-yl)-5-fluorophenyl)ethyl)amino)-6-chloropicolinic acid]: below 0.1 µM; for `Cc1cc(C(C)Nc2ccccc2C(=O)O)nc(N2C(=O)OC[C@@H]2Cc2ccccc2)c1` (stereo partly drawn) [Example 17, 2-((1-(6-((S)-4-Benzyl-2-oxooxazolidin-3-yl)-4-methylpyridin-2-yl)ethyl)amino)benzoic acid]: 1 to 10 µM. Still for that read-out and setting: the value for `Cc1cc(C(C)Nc2ccc(C#N)nc2C(=O)O)nc(N2C(=O)OC[C@@H]2Cc2ccccc2)c1` (stereo partly drawn) [Example 19, 3-((1-(6-((S)-4-Benzyl-2-oxooxazolidin-3-yl)-4-methylpyridin-2-yl)ethyl)amino)-6-cyanopicolinic acid] was 1 to 10 µM.

As to `Cc1cc([C@@H](C)Nc2ccc(Cl)nc2C(=O)O)nc(N2C(=O)OC[C@@H]2Cc2ccccc2Br)c1` [Example 22, 3-(((R)-1-(6-((S)-4-(2-Bromobenzyl)-2-oxooxazolidin-3-yl)-4-methylpyridin-2-yl)ethyl)amino)-6-chloropicolinic acid], the IC50 was 0.1 to 1 µM.

With `Cc1cc([C@@H](C)Nc2ccc(Cl)nc2C(=O)O)nc(N2C(=O)OC[C@@H]2Cc2ccc(C(=O)OC(C)(C)C)cc2)c1` [Example 25, 3-(((R)-1-(6-((S)-4-(4-(tert-Butoxycarbonyl)benzyl)-2-oxooxazolidin-3-yl)-4-methylpyridin-2-yl)ethyl)amino)-6-chloropicolinic acid], the IC50 under setting [1] is 0.1 to 1 µM. Take `Cc1cc([C@@H](C)Nc2ccc(Cl)nc2C(=O)O)nc(N2C(=O)OC[C@@H]2Cc2ccncc2)c1` [Example 28, 6-Chloro-3-(((R)-1-(4-methyl-6-((S)-2-oxo-4-(pyridin-4-ylmethyl)oxazolidin-3-yl)pyridin-2-yl)ethyl)amino)picolinic acid]: the IC50 under setting [1] lay within 0.1 to 1 µM. Same read-out and setting: the value for `Cc1cc([C@@H](C)Nc2ccc(Cl)nc2C(=O)O)nc(N2C(=O)OC[C@@H]2Cc2cc(C)ncc2F)c1` [Example 30, 6-Chloro-3-(((R)-1-(6-((S)-4-((5-fluoro-2-methylpyridin-4-yl)methyl)-2-oxooxazolidin-3-yl)-4-methylpyridin-2-yl)ethyl)amino)picolinic acid] was 0.1 to 1 µM; that for `Cc1cc([C@@H](C)Nc2ccc(Cl)nc2C(=O)O)nc(N2C(=O)OC[C@@H]2Cc2cccc3ccccc23)c1` [Example 31, 6-Chloro-3-(((R)-1-(4-methyl-6-((S)-4-(naphthalen-1-ylmethyl)-2-oxooxazolidin-3-yl)pyridin-2-yl)ethyl)amino)picolinic acid] was 0.1 to 1 µM; that for `Cc1cc([C@@H](C)Nc2ccc(Cl)nc2C(=O)O)nc(N2C(=O)OC[C@@H]2Cc2cnn(C)c2)c1` [Example 32, 6-Chloro-3-(((R)-1-(4-methyl-6-((S)-4-((1-methyl-1H-pyrazol-4-yl)methyl)-2-oxooxazolidin-3-yl)pyridin-2-yl)ethyl)amino)picolinic acid] was 0.1 to 1 µM. On to `Cc1cc([C@@H](C)Nc2ccc(Cl)nc2C(=O)O)nc(N2C(=O)OC[C@@H]2Cc2ccn(C)n2)c1` [Example 33, 6-Chloro-3-(((R)-1-(4-methyl-6-((S)-4-((1-methyl-1H-pyrazol-3-yl)methyl)-2-oxooxazolidin-3-yl)pyridin-2-yl)ethyl)amino)picolinic acid], for which the IC50 under setting [1] fell in the range of 0.1 to 1 µM. Take `Cc1cc([C@@H](C)Nc2ccc(Cl)nc2C(=O)O)nc(N2C(=O)OC[C@@H]2Cc2ccnn2C)c1` [Example 34, 6-Chloro-3-(((R)-1-(4-methyl-6-((S)-4-((1-methyl-1H-pyrazol-5-yl)methyl)-2-oxooxazolidin-3-yl)pyridin-2-yl)ethyl)amino)picolinic acid]: the half-maximal inhibitory concentration (IC50) under setting [1] lay within 0.1 to 1 µM.
